Measured values: US20150164874A1, “PIRFENIDONE AND ANTI-FIBROTIC THERAPY IN SELECTED PATIENTS” (INTERMUNE, INC., priority 2011, published 2015)

What was measured:
[1] = system: IPF patients with mild to moderate impairment in lung function; assay: Phase 3 trials Study 1 and Study 2 of pirfenidone vs placebo in IPF patients, retrospective re-analysis (ITT vs novel selection criteria); assay type: in vivo, human; settings: for 6MWT change from baseline, Relative Δ / % DLco change from baseline, Relative Δ / % FVC ≧10% decline, Relative Δ / Progression-free survival, time to event HR / SpO2 During 6MWT change from baseline, Relative Δ / Survival, time to event HR / UCSD SOBQ (dyspnea) change from baseline, Relative Δ / Worsening IPF, time to event HR: Study 1 and Study 2 pooled, pirfenidone vs placebo; for Interaction with Treatment: Group with Greater Pirfenidone Effect: multivariate model of FVC decline at 72 weeks
Text: Two multinational, randomized, double-blind, placebo-controlled Phase 3 trials, referred to herein as Study 1 and Study 2, were designed and performed to evaluate the safety and efficacy of pirfenidone in IPF patients with mild to moderate impairment in lung function. Both trials enrolled patients in North America, Europe and Australia with roughly 75% of the total 779 patients enrolled in North America.
Study 1 enrolled a total of 344 patients. Patients were randomized 1:1 to receive a total daily dose of 2403 mg pirfenidone, or placebo. Study 2 enrolled a total of 435 patients, and patients were randomized 2:2:1 to receive a total daily dose of 2403 mg pirfenidone, or placebo, or a total daily dose of 1197 mg pirfenidone, respectively. The total daily dose of pirfenidone was administered in three divided doses, three times per day.
If the surgical lung biopsy or HRCT scans were ambiguous, the slides or HRCT images were evaluated by an adjudicator for a second opinion.
Exclusion criteria included: FEV1/FVC<0.7 after bronchodilator administration, bronchodilator response, RV>120%, history of significant environmental exposure known to cause pulmonary fibrosis, and diagnosis of connective tissue disease or other known explanation of interstitial lung disease (ILD).
Enrollment of both trials was completed in less than 13 months following randomization of the first patient into the program in late April 2006. Ninety-seven percent (97%) of all patients in the two studies who were living and had not received a lung transplant, completed their Week 72 study visit.
The primary endpoint of both trials was change in percent predicted Forced Vital Capacity (FVC) after 72 weeks of treatment evaluated with a nonparametric rank ANCOVA analysis. The pre-specified secondary endpoints monitored during the studies included: (a) Time to worsening of IPF, defined as time to acute IPF exacerbation, IPF-related death, lung transplant or respiratory hospitalization, whichever comes first; (b) Progression-free survival defined as time to the first occurrence of either of the following (as compared to the patient's baseline): (1) 10% absolute decline in percent predicted FVC, or (2) 15% absolute decline in percent predicted Hb-corrected DL(CO), or (3) death (in the case of FVC or DL(CO), the decline must be confirmed at two consecutive visits at least 6 weeks apart); (c) Categorical assessment of absolute change from Baseline to Week 72 in percent predicted FVC; (d) Change from Baseline to Week 72 in dyspnea measured by the University of California at San Diego Shortness-of-Breath Questionnaire (UCSD SOBQ); (e) Change from Baseline to Week 72 in the percent predicted Hb-corrected DL(CO); (f) Change from Baseline to Week 72 in the worst oxygen saturation by pulse oximetry (SpO2) measurement observed during the Six-Minute Walk Test; (g) Change from Baseline to Week 72 in distance walked in the Six-Minute Walk Test (6MWT).
After the studies were completed, a retrospective multivariate model of data identified predictors of greater FVC decline at 72 weeks and variables that have a statistical interaction with pirfenidone treatment (i.e. the magnitude of the pirfenidone treatment effect is different at different levels of these variables).
Data from Study 1 and Study 2 were re-analyzed, selecting patients according to the following novel criteria instead of the original Intention To Treat (IIT) criteria:
(c) Time since IPF diagnosis >0.5 years and <48 months
Mean change in FVC in pirfenidone-treated vs. placebo-treated groups from Study 1 and Study 2, for the original patient population selected using the ITT criteria, is shown in FIG. 2A. When the patient population is instead selected using the novel criteria above, the mean change in FVC in pirfenidone-treated vs. placebo-treated groups for the patient is shown in FIG. 2B. Patients in both pirfenidone-treated and placebo-treated groups experienced a decline in mean % FVC from baseline. […]

[2] = system: IPF patients with mild to moderate impairment in lung function; assay: Phase 3 study of Actimmune in 826 IPF patients, retrospective analysis of FVC progression; assay type: in vivo, human; settings: Phase 3 study 2003-2007
Text: FIGS. 1A-1D depicts a analysis of FVC progression from a clinical trial involving a different drug, interferon gamma-lb, which is inert with respect to effect on efficacy outcomes, in 826 patients with IPF, when the patients are segregated according to % FVC (FIG. 1A), % DLco (FIG. 1B), time since IPF diagnosis (FIG. 1C) and FEV1/FVC ratio (FIG. 1D).
In a prior trial involving 826 patients, data regarding progression of FVC was collected as part of a randomized, double-blind, placebo-controlled Phase 3 study conducted from 2003-2007 that was designed to evaluate the safety and efficacy of Actimmune(R) in IPF patients with mild to moderate impairment in lung function.

[3] = Study 1 and Study 2, novel criteria, week 72
[4] = Study 1 and Study 2, original ITT criteria, week 48
[5] = Study 1 and Study 2, original ITT criteria, week 72

Question: With Cc1ccc(=O)n(-c2ccccc2)c1 [pirfenidone, 5-methyl-1-phenyl-2-(1H)-pyridone] as the molecule, how does the “6MWT change from baseline, Relative Δ” value ([1]; Novel criteria, week 48) read?
Answer: 64.2%

Question: And the “% DLco change from baseline, Relative Δ” value ([1]; Novel criteria, week 48)?
Answer: 36.9%

Question: And the “% FVC ≧10% decline, Relative Δ” value ([1]; Novel criteria, week 48)?
Answer: 60.4%

Question: What about the “Progression-free survival, time to event HR” value ([1]; Novel criteria, week 48) of the same molecule?
Answer: 0.31

Question: What about the “SpO2 During 6MWT change from baseline, Relative Δ” value ([1]; Novel criteria, week 48) of the same molecule?
Answer: 62.3%

Question: And the “Survival, time to event HR” value ([1]; Novel criteria, week 48)?
Answer: 0.16

Question: And the “UCSD SOBQ (dyspnea) change from baseline, Relative Δ” value ([1]; Novel criteria, week 48)?
Answer: −46.5%

Question: What about the “Worsening IPF, time to event HR” value ([1]; Novel criteria, week 48) of the same molecule?
Answer: 0.75

Question: What about the “6MWT change from baseline, Relative Δ” value ([1]; Pooled ITT, week 48) of the same molecule?
Answer: 41%

Question: What about the “% DLco change from baseline, Relative Δ” value ([1]; Pooled ITT, week 48) of the same molecule?
Answer: 16%

Question: What about the “% FVC ≧10% decline, Relative Δ” value ([1]; Pooled ITT, week 48) of the same molecule?
Answer: 39%

Question: What about the “Progression-free survival, time to event HR” value ([1]; Pooled ITT, week 48) of the same molecule?
Answer: 0.53

Question: And the “SpO2 During 6MWT change from baseline, Relative Δ” value ([1]; Pooled ITT, week 48)?
Answer: 21%

Question: What about the “Survival, time to event HR” value ([1]; Pooled ITT, week 48) of the same molecule?
Answer: 0.42

Question: What about the “UCSD SOBQ (dyspnea) change from baseline, Relative Δ” value ([1]; Pooled ITT, week 48) of the same molecule?
Answer: −29%

Question: And the “Worsening IPF, time to event HR” value ([1]; Pooled ITT, week 48)?
Answer: 0.80

Question: And the “absolute difference in mean change from baseline % FVC between pirfenidone-treated and placebo-treated groups” value ([1]; Study 1 and Study 2, novel criteria (% FVC 50%-90%, FEV1/FVC >0.80, time since diagnosis >0.5 years and <48 months), week 48)?
Answer: 6.1%

Question: What about the “relative difference in mean change from baseline % FVC between pirfenidone-treated and placebo-treated groups” value ([1]; Study 1 and Study 2, novel criteria, week 48) of the same molecule?
Answer: 63.3%

Question: And the “absolute difference in mean change from baseline % FVC between pirfenidone-treated and placebo-treated groups” value [1, 3]?
Answer: 7.9%

Question: And the “relative difference in mean change from baseline % FVC between pirfenidone-treated and placebo-treated groups” value [1, 3]?
Answer: 57.0%

Question: What about the “absolute difference in mean change from baseline % FVC between pirfenidone-treated and placebo-treated groups” value [1, 4] of the same molecule?
Answer: 3.3%

Question: And the “relative difference in mean change from baseline % FVC between pirfenidone-treated and placebo-treated groups” value [1, 4]?
Answer: 41.6%

Question: And the “absolute difference in mean change from baseline % FVC between pirfenidone-treated and placebo-treated groups” value [1, 5]?
Answer: 2.5%

Question: And the “relative difference in mean change from baseline % FVC between pirfenidone-treated and placebo-treated groups” value [1, 5]?
Answer: 22.8%

Question: And the “Interaction with Treatment: Group with Greater Pirfenidone Effect” value ([1]; variable % FVC (90%), P-value 0.096)?
Answer: FVC <90%

Question: And the “Interaction with Treatment: Group with Greater Pirfenidone Effect” value ([1]; variable Time since Diagnosis of IPF (0.5 yrs), P-value 0.043)?
Answer: Time >0.5 years

B1: Actimmune: a different drug, interferon gamma-lb, inert with respect to effect on efficacy outcomes in IPF (protein, UniProt P01579 24-161, looked up)
Interferon gamma: QDPYVKEAENLKKYFNAGHSDVADNGTLFLGILKNWKEESDRKIMQSQIVSFYFKLFKNFKDDQSIQKSVETIKEDMNVKFFNSNKKKRDDFEKLTNYSVTDLNVQRKAIHELIQVMAELSPAAKTGKRKRSQMLFRG
Question: For B1, which “effect on FVC progression / efficacy outcomes” value [2] is on record?
Answer: does not have an effect on these outcomes
